In PubChem BioAssay (NCI):
Several values for one entry are separate records, joined by “and”; a condition that tells them apart may be missing. Equal entries are not always repeated.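 Dose response: 5 concentrations. Exposure: 48 h. Format: 96-well plates. Endpoint: linear interpolation; highest concentration if not reached. The concentration for 50% growth inhibition is given as GI50. At the TGI there is no net growth.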 Where a SMILES comes first, the peptide text is derived from it. The star is where a group is joined. Fmoc = O=C(OCC1c2ccccc2-c2ccccc21)*; Boc = CC(C)(C)OC(=O)*

Experiments:
Test in all cases: NCI-60 cell line screen, 48 h
[1] = test system: UO-31 renal
[2] = test system: LOX IMVI melanoma
[3] = test system: PC-3 prostate
[4] = test system: SR leukemia
[5] = test system: K-562 leukemia
[6] = test system: SN12C renal
[7] = test system: ACHN renal
[8] = test system: COLO 205 colon
[9] = test system: SK-OV-3 ovarian
[10] = test system: MDA-N
[11] = test system: CCRF-CEM leukemia
[12] = test system: MOLT-4 leukemia
[13] = test system: BT-549 breast

Row | SMILES | TGI [1] | TGI [2] | TGI [3] | TGI [4] | TGI [5] | TGI [6] | TGI [7] | TGI [8] | TGI [9] | TGI [10] | TGI [11] | TGI [12] | TGI [13] | GI50 [1] | GI50 [4] | GI50 [5] | GI50 [8] | GI50 [10] | GI50 [11] | GI50 [12]
1 | c1ccc2c(c1)CCc1[nH]c3c(c1-2)-c1ccccc1CC3 | > 100 µM | > 100 µM | > 100 µM | > 100 µM | > 100 µM | > 100 µM | > 100 µM | > 100 µM | > 100 µM | > 100 µM | > 100 µM | > 100 µM | > 100 µM |  |  |  |  |  |  | 
2 | CN1CN(c2ccccc2)C2(CCN(CCC3COc4ccccc4O3)CC2)C1=O (stereo not drawn) | 38.2 µM | 50.4 µM | > 100 µM | 71.6 µM | 44.9 µM | 83.9 µM | > 100 µM | 34.2 µM | 71.1 µM | 53.1 µM | 77.4 µM | 70.1 µM | 42.5 µM |  |  |  |  |  |  | 
3 | CC(C)(C)OC(=O)NCCCCC(NC(=O)C(Cc1c[nH]c2ccccc12)NC(=O)OCC1c2ccccc2-c2ccccc21)C(=O)N1CCCC1C(=O)NCC(N)=O (stereo not drawn) (Fmoc-WK(Boc)PG-NH2; configuration not given here) | > 100 µM | > 100 µM | > 100 µM | > 100 µM | > 100 µM | > 100 µM | > 100 µM | > 100 µM | > 100 µM | > 100 µM | > 100 µM | > 100 µM | > 100 µM |  |  |  |  |  |  | 
4 | CCOC(=O)C(=O)/C(=C/N1C(=O)CC(=O)NC1=S)C(=O)OCC | > 100 µM | > 100 µM | > 100 µM | > 100 µM | > 100 µM | > 100 µM | > 100 µM | > 100 µM | > 100 µM | > 100 µM | > 100 µM | > 100 µM | > 100 µM |  |  |  |  |  |  | 
5 | CN(c1cn(C2CC[C@@H](CO)O2)c(=O)[nH]c1=O)C1CCCCC1 (stereo partly drawn) | > 100 µM | > 100 µM | > 100 µM | > 100 µM | > 100 µM | > 100 µM | > 100 µM | > 100 µM | > 100 µM | > 100 µM | > 100 µM | > 100 µM | > 100 µM |  |  |  |  |  |  | 
6 | Cc1ccc(S(=O)c2sccc2C=O)cc1 (stereo not drawn) | > 100 µM | 32.4 µM | > 100 µM | 84.2 µM | > 100 µM | 63.5 µM | > 100 µM | > 100 µM | > 100 µM | > 100 µM | 56 µM | 59.1 µM | 60.3 µM |  |  |  |  |  |  | 
7 | O=C(CNC(c1ccccc1)(c1ccccc1)c1ccccc1)NC1CCCCC1NC(=O)CNC(c1ccccc1)(c1ccccc1)c1ccccc1 (stereo not drawn) | > 100 µM | > 100 µM | > 100 µM | > 100 µM | > 100 µM | > 100 µM | > 100 µM | > 100 µM | > 100 µM | > 100 µM | > 100 µM | > 100 µM | > 100 µM |  |  |  |  |  |  | 
8 | Cc1nnc(N)nc1/C=C/c1c(O)ccc2ccccc12 | 84.6 µM | > 100 µM | 64.1 µM | > 100 µM | > 100 µM | > 100 µM | 43.7 µM | > 100 µM | > 100 µM | > 100 µM | > 100 µM | > 100 µM | > 100 µM |  |  |  |  |  |  | 
9 | CN1CCN(c2ccc3nc(-c4ccc5nc(-c6ccc(O)cc6)[nH]c5c4)[nH]c3c2)CC1 | 938 µM | 553 µM | 1150 µM | 2000 µM | 470 µM | 464 µM | 666 µM | 147 µM | 948 µM | 354 µM | 381 µM | 482 µM | 715 µM | 10.6 µM | 4.53 µM | 12.7 µM and 6.04 µM | 6.24 µM and 19.5 µM and 6.78 µM | 8.77 µM | 12.9 µM (2×) and 15.4 µM | 37.2 µM and 39.4 µM
10 | C=C(CN1CC2C[C@](C(=O)OC)(c3cc4ccccc4[nH]3)C1C(OC)C2OC)S(=O)(=O)c1ccccc1 (stereo partly drawn) | 3.77 µM | 3.54 µM | 13 µM | 5.91 µM | 10.6 µM | 11.3 µM | 9.24 µM | 6.14 µM | 13.8 µM | 8.94 µM | > 77.2 µM | 2.83 µM | 12.4 µM |  |  |  |  |  |  | 
11 | C[C@@H](NC(=O)c1ccc(CNC(=O)/C=C/c2cccc(Oc3ccccc3)c2)cc1)c1ccccc1 | 27.5 µM | > 100 µM | > 100 µM | > 100 µM | > 100 µM | > 100 µM | 36 µM | > 100 µM | > 100 µM | > 100 µM | > 100 µM | > 100 µM | > 100 µM |  |  |  |  |  |  | 
12 | O=C(O)CCCc1ccc2ccccc2c1 | > 100 µM | > 100 µM | > 100 µM | > 100 µM | > 100 µM | > 100 µM | > 100 µM | > 100 µM | > 100 µM | > 100 µM | > 100 µM | > 100 µM | > 100 µM |  |  |  |  |  |  | 
13 | CCN(CC)CCNc1ccc2nnn3c4ccc(O)cc4c(=O)c1c23 | 4.06 µM | 4.05 µM | 16.9 µM | 1.48 µM | 30.6 µM | 17.8 µM | 14.2 µM | 16.9 µM | 40.3 µM | 17.5 µM | 31.6 µM | 4.76 µM | 25.5 µM |  |  |  |  |  |  | 
14 | COc1ccc2nc3ccc(OC)cc3c(SCc3ccccc3)c2c1 | > 35.7 µM | > 100 µM | > 100 µM | > 100 µM | > 100 µM | > 100 µM | > 100 µM | > 100 µM | > 100 µM | > 26.3 µM | > 94.1 µM | > 83.2 µM | > 100 µM |  |  |  |  |  |  | 
15 | CC(OC(=O)C(CC(=O)OC(C)(C)C)NC(=O)OC(C)(C)C)C(=O)OCc1ccccc1 (stereo not drawn) | > 100 µM | > 100 µM | > 100 µM | > 100 µM | > 100 µM | > 100 µM | > 100 µM | > 100 µM | > 100 µM | > 100 µM | > 100 µM | > 100 µM | > 100 µM |  |  |  |  |  |  | 
16 | COC(=O)C1(C(=O)OC)N=C(C)OC1/C=C/c1ccccc1 (stereo not drawn) | > 100 µM | > 100 µM | > 100 µM | > 100 µM | > 100 µM | > 100 µM | > 100 µM | > 100 µM | > 100 µM | > 100 µM | > 100 µM | > 100 µM | > 100 µM |  |  |  |  |  |  | 
17 | CSc1ncc2c(n1)sc1c(=O)n(-c3ccccc3)cnc12 | > 100 µM | > 100 µM | > 100 µM | > 100 µM | > 100 µM | > 100 µM | > 100 µM | > 100 µM | > 100 µM | > 100 µM | > 100 µM | > 100 µM | > 100 µM |  |  |  |  |  |  | 
18 | COC(=O)/C=C/C1(O)C=CC(=O)C=C1 | 3.51 µM | 4.74 µM | 9.53 µM | 10.7 µM | > 100 µM | 3.32 µM | 5.25 µM | 23.4 µM | 42.2 µM | 4.5 µM | 10.7 µM | > 24.6 µM | 22.9 µM |  |  |  |  |  |  | 
19 | O=C(C/C(=N/O)c1cc(-c2ccccc2)no1)c1ccccc1 | > 100 µM | > 100 µM | > 100 µM | > 100 µM | > 100 µM | > 100 µM | > 100 µM | > 100 µM | 38.4 µM | > 100 µM | > 100 µM | > 100 µM | 75.1 µM |  |  |  |  |  |  | 
20 | COC(=O)CCC(C)C1CCC2C3C(C[C@H](OC(C)=O)[C@]12C)[C@@]1(C)CCC2(C[C@H]1C[C@H]3OC(C)=O)OOC1(CC[C@]3(C)C4C[C@H](OC(C)=O)[C@]5(C)C(C(C)CCC(=O)OC)CCC5C4[C@H](OC(C)=O)C[C@@H]3C1)OO2 (stereo partly drawn) | > 100 µM | > 100 µM | > 100 µM | 99.1 µM | > 100 µM | > 100 µM | > 100 µM | > 100 µM | > 100 µM | > 100 µM | > 100 µM | > 100 µM | > 100 µM |  |  |  |  |  |  | 
21 | C[N+](C)(C)CC(=O)N/N=C/c1ccncc1 | > 100 µM | > 100 µM | > 100 µM | > 100 µM | > 100 µM | > 100 µM | > 100 µM | > 100 µM | > 100 µM | > 100 µM | > 100 µM | > 100 µM | > 100 µM |  |  |  |  |  |  | 
22 | COc1ccc(/C=C2\CCC/C(=C\c3ccc(O)c(CN4CCCCC4)c3)C2=O)cc1 | 39.9 µM | 26.1 µM | 42.7 µM | 19.8 µM | > 100 µM | 36.5 µM | > 82.7 µM | 46.9 µM | 40.7 µM | 37.2 µM | > 100 µM | 40.7 µM | 37.7 µM |  |  |  |  |  |  | 
23 | CCOC(=O)C(C(=S)SC)c1nn2c(=O)cc(C)nc2s1 (stereo not drawn) | 40 µM | 29.4 µM | 37.3 µM | 47.1 µM | 34.9 µM | 34.2 µM | 37.8 µM | 47.5 µM | 47.4 µM | 29.8 µM | 77.5 µM | 44.2 µM | 34.2 µM |  |  |  |  |  |  | 
24 | Cc1ccc2nc(C=Nc3ccc(Cl)cc3)cc(C)c2c1 | 7.91 µM | 20.1 µM | > 76.5 µM | 11.6 µM | > 39.5 µM | 29.4 µM | > 96.4 µM | 6.08 µM | > 100 µM | 25.2 µM | 13.1 µM | > 53.6 µM | 30 µM |  |  |  |  |  |  | 
25 | O=C1C=CC(=O)c2c1ccc1c3ccccc3n(Cc3cccc([N+](=O)[O-])c3)c21 | > 100 µM | > 100 µM | > 69 µM | > 32.6 µM | > 59.9 µM | 49.1 µM | 38 µM | 21.2 µM | > 100 µM | 26.3 µM | 23 µM | 37.7 µM | > 69.7 µM |  |  |  |  |  |  | 
26 | O=C1C=C(OCCCCl)C(=O)c2c(O)ccc(O)c21 | 2.41 µM | 0.659 µM | 3.98 µM | 3.52 µM | 5.86 µM | 1.12 µM | 2.96 µM | 0.642 µM | 3.85 µM | 0.349 µM | 3.75 µM | 6.06 µM | 2.56 µM |  |  |  |  |  |  | 
27 | O=C(CCCl)NNC1=NCCCN1 | > 100 µM | > 100 µM | > 100 µM | > 100 µM | > 100 µM | > 100 µM | > 100 µM | > 100 µM | > 100 µM | > 100 µM | > 100 µM | > 100 µM | > 100 µM |  |  |  |  |  |  | 
